The values below come from US11845919B2, “Blood culture system with low media volume” (BECTON, DICKINSON AND COMPANY, priority 2015, dated 2023).

The subject of this test is antibiotic/microorganism combinations. As to the kind of experiment: TTD tests per antibiotic, Low Volume/Low Ratio vs PlusAer control. The class given is cell-based. Particulars: drug amount at peak serum level in 7 ml of blood. As for the experimental part: The performance of 1:1 blood-to-broth ratio in the presence of an inhibitory antibiotic was tested in comparison to a standard diluted blood-to-broth ratio at least 1:3. Two different sample preparations for the 1:1 blood-to-broth ratio are described below.
FIG. 3A illustrates a low volume/low ratio preparation that is prepared in a 30 ml vial with the resin and lytic media disposed in separate chambers. The preparation contained resin and 8 ml total lytic media. The sensor in the container was a solid-state fluorescent 02 sensor. The fluorescent signal changes were used to determine microorganism growth. […] The low volume/low ratio preparation provided a 1:1 blood-to-broth ratio. The total 8 ml lytic media were separated into two parts. One part of the lytic media was in the 30 ml bottle with resin and the other part of the lytic media was in a separate device and the media therein was added under sterile conditions into the 30 ml bottle at the time the bottle was inoculated with both the blood sample and the microorganisms.
FIG. 3B illustrates the second sample preparation identified as “PlusLytic”. The PlusLytic preparation uses the BACTEC Plus Aerobic product that is commercially available, which is 30 ml of media in the 80 ml bottle. At the time of testing, 8 ml of blood, a predetermined amount of antibiotic, 10-100 CFU's of microorganisms, and an additional 20 mg of saponin were combined with the 30 ml of media in the bottle. […] The control test sample preparation is depicted in FIG. 3C and identified as “PlusAer”. The PlusAer preparation uses the commercially available BACTEC Plus Aerobic product without any additional media components. At the time of testing, 8 ml of blood, a predetermined amount of antibiotic and 10-100 CFU's of microorganisms are combined with the contents of the BACTEC Plus Aerobic product.
Each sample preparation was tested with 64 antibiotic/microorganism combinations. The antibiotics tested were Gentamicin, Amoxicillin-Clavulanate, Aztreonam, Ceftriaxone, Cefepime, Imipenem, Meropenem, Piperacillin-Tazobactam, Vancomycin, Tigecycline, Ciprofloxacin, Tetracycline, Fluconazole. The drug quantity inoculated into each test bottle was equivalent to the drug amount at its peak serum level in 7 ml of blood. These antibiotics were combined with certain microorganisms that they generally treat. For example, Amoxicillin-Clavulanate was combined with S. aureus, E. coli, and E. faecalis. Each sample was tested for both TTD and recovery of the microorganism in the presence of drugs.
The media was inoculated with blood sample, antibiotics and saponin a few minutes apart from each other.

For Gentamicin, the “TTD of the Low Volume/Low Ratio preparation as compared to the PlusAer preparation” value is “slower TTD”.
As to `CN[C@H](CC(C)C)C(=O)N[C@H]1C(=O)N[C@@H](CC(N)=O)C(=O)N[C@H]2C(=O)N[C@H]3C(=O)N[C@H](C(=O)N[C@H](C(=O)O)c4cc(O)cc(O)c4-c4cc3ccc4O)[C@H](O)c3ccc(c(Cl)c3)Oc3cc2cc(c3O[C@@H]2O[C@H](CO)[C@@H](O)[C@H](O)[C@H]2O[C@H]2C[C@](C)(N)[C@H](O)[C@H](C)O2)Oc2ccc(cc2Cl)[C@H]1O` [Vancomycin], the “TTD of the Low Volume/Low Ratio preparation as compared to the PlusAer preparation” value was “faster TTD”.
With `CO/N=C(\C(=O)N[C@@H]1C(=O)N2C(C(=O)O)=C(CSc3nc(=O)c(=O)[nH]n3C)CS[C@H]12)c1csc(N)n1` [Ceftriaxone], the “TTD of the Low Volume/Low Ratio preparation as compared to the PlusAer preparation” value was “faster TTD”.
Next, “Amoxicillin-Clavulanate [Amoxicillin/clavulanic acid]”: “faster TTD”.
With `C[C@@H](O)[C@H]1C(=O)N2C(C(=O)O)=C(S[C@@H]3CN[C@H](C(=O)N(C)C)C3)[C@H](C)[C@H]12` [Meropenem], the “TTD of the Low Volume/Low Ratio preparation as compared to the PlusAer preparation” value is “faster TTD”.
